{"source": "paper PMC5218480", "about": "(PLoS ONE, 2017)", "system": "MV-4-11 cells", "assay": "Gene expression microarray analysis (Affymetrix PrimeView) and GSEA", "type": "cell-based, human", "set-up": "RFU PODN (11730768_x_at) / Fold change /veh PODN (11730768_x_at) / RFU LINC00158 (11744669_a_at) / Fold change /veh LINC00158 (11744669_a_at) / RFU DUSP10 (11751237_a_at) / Fold change /veh DUSP10 (11751237_a_at) / RFU ID3 (11757404_x_at) / Fold change /veh ID3 (11757404_x_at) / RFU PLEKHG5 (11737974_s_at) / Fold change /veh PLEKHG5 (11737974_s_at) / RFU LRRC4B (11730491_at) / Fold change /veh LRRC4B (11730491_at) / RFU GIMAP4 (11747438_a_at) / Fold change /veh GIMAP4 (11747438_a_at) / RFU KRT8 (11758183_x_at) / Fold change /veh KRT8 (11758183_x_at) / RFU CNN1 (11734310_a_at) / Fold change /veh CNN1 (11734310_a_at) / RFU VPS37D (11726825_at) / Fold change /veh VPS37D (11726825_at) / RFU C10orf10 (11716522_x_at) / Fold change /veh C10orf10 (11716522_x_at) / RFU KIR2DL2 /// KIR2DL4 /// KIR2DL5A /// KIR2DL5B /// KIR2DS1 /// KIR2DS2 /// KIR2DS3 /// KIR2DS4 /// KIR3DL3 /// KIR3DL3 /// KIR3DS1 (11738374_at) / Fold change /veh KIR2DL2 /// KIR2DL4 /// KIR2DL5A /// KIR2DL5B /// KIR2DS1 /// KIR2DS2 /// KIR2DS3 /// KIR2DS4 /// KIR3DL3 /// KIR3DL3 /// KIR3DS1 (11738374_at) / RFU C1QL1 (11718748_at) / Fold change /veh C1QL1 (11718748_at) / RFU TMPRSS4 (11747572_a_at) / Fold change /veh TMPRSS4 (11747572_a_at) / RFU HAMP (11756126_x_at) / Fold change /veh HAMP (11756126_x_at) / RFU RNFT2 (11725882_a_at) / Fold change /veh RNFT2 (11725882_a_at) / RFU NR4A2 (11747474_a_at) / Fold change /veh NR4A2 (11747474_a_at) / RFU ABCC12 (11746883_a_at) / Fold change /veh ABCC12 (11746883_a_at) / RFU TMEM136 (11760407_x_at) / Fold change /veh TMEM136 (11760407_x_at) / RFU CLDN22 /// WWC2 (11732394_at) / Fold change /veh CLDN22 /// WWC2 (11732394_at) / RFU HLA-DPB1 (11760878_x_at) / Fold change /veh HLA-DPB1 (11760878_x_at) / RFU SPINT1 (11716480_a_at) / Fold change /veh SPINT1 (11716480_a_at) / RFU GAP43 (11754022_s_at) / Fold change /veh GAP43 (11754022_s_at) / RFU A4GNT (11735810_at) / Fold change /veh A4GNT (11735810_at) / RFU PRB3 (11715151_x_at) / Fold change /veh PRB3 (11715151_x_at) / RFU TUBB4B (11761932_at) / Fold change /veh TUBB4B (11761932_at) / RFU CAPN14 (11732068_a_at) / Fold change /veh CAPN14 (11732068_a_at) / RFU TMCC2 (11721928_a_at) / Fold change /veh TMCC2 (11721928_a_at) / RFU IRGQ (11745062_a_at) / Fold change /veh IRGQ (11745062_a_at) / RFU FAM174B (11720279_a_at) / Fold change /veh FAM174B (11720279_a_at) / RFU TMPRSS4 (11748680_a_at) / Fold change /veh TMPRSS4 (11748680_a_at) / RFU FAM212B (11763350_a_at) / Fold change /veh FAM212B (11763350_a_at) / RFU PLEKHG5 (11743358_a_at) / Fold change /veh PLEKHG5 (11743358_a_at) / RFU ZSCAN30 (11745921_a_at) / Fold change /veh ZSCAN30 (11745921_a_at) / RFU CMKLR1 (11741424_a_at) / Fold change /veh CMKLR1 (11741424_a_at) / RFU LOC101060620 /// MAPK8IP1 (11723275_at) / Fold change /veh LOC101060620 /// MAPK8IP1 (11723275_at) / RFU SPTSSB (11747773_x_at) / Fold change /veh SPTSSB (11747773_x_at) / RFU PRSS12 (11739890_at) / Fold change /veh PRSS12 (11739890_at) / RFU BIN1 (11741810_x_at) / Fold change /veh BIN1 (11741810_x_at) / RFU WNT11 (11732464_a_at) / Fold change /veh WNT11 (11732464_a_at) / RFU C10orf10 (11716521_a_at) / Fold change /veh C10orf10 (11716521_a_at) / RFU C5orf56 (11738089_at) / Fold change /veh C5orf56 (11738089_at) / RFU CYB561 (11721691_x_at) / Fold change /veh CYB561 (11721691_x_at) / RFU ANKRD19P (11752326_a_at) / Fold change /veh ANKRD19P (11752326_a_at) / RFU OR2T12 /// OR2T33 /// OR2T8 (11738714_s_at) / Fold change /veh OR2T12 /// OR2T33 /// OR2T8 (11738714_s_at) / RFU VCAN (11748164_a_at) / Fold change /veh VCAN (11748164_a_at) / RFU JSRP1 (11732532_at) / Fold change /veh JSRP1 (11732532_at) / RFU KRTAP10-11 (11738290_x_at) / Fold change /veh KRTAP10-11 (11738290_x_at) / RFU MYO3A (11730013_a_at) / Fold change /veh MYO3A (11730013_a_at) / RFU EBF3 (11725865_a_at) / Fold change /veh EBF3 (11725865_a_at) / RFU CAMK2N1 (11719241_x_at) / Fold change /veh CAMK2N1 (11719241_x_at) / RFU C5orf56 (11738088_a_at) / Fold change /veh C5orf56 (11738088_a_at) / RFU OLFML3 (11715873_a_at) / Fold change /veh OLFML3 (11715873_a_at) / RFU LOC100653217 /// NTM (11731650_a_at) / Fold change /veh LOC100653217 /// NTM (11731650_a_at) / RFU MAPK11 (11762145_a_at) / Fold change /veh MAPK11 (11762145_a_at) / RFU FIZ1 (11724087_x_at) / Fold change /veh FIZ1 (11724087_x_at) / RFU OASL (11726364_x_at) / Fold change /veh OASL (11726364_x_at) / RFU SOX15 (11748057_x_at) / Fold change /veh SOX15 (11748057_x_at) / RFU CD79A (11719716_a_at) / Fold change /veh CD79A (11719716_a_at) / RFU HIST1H1D (11736915_at) / Fold change /veh HIST1H1D (11736915_at) / RFU CASKIN2 (11723855_a_at) / Fold change /veh CASKIN2 (11723855_a_at) / RFU LOC730098 (11760151_x_at) / Fold change /veh LOC730098 (11760151_x_at) / RFU OR4N2 (11742367_at) / Fold change /veh OR4N2 (11742367_at) / RFU PRRT2 (11749266_a_at) / Fold change /veh PRRT2 (11749266_a_at) / RFU SNX32 (11753110_a_at) / Fold change /veh SNX32 (11753110_a_at) / RFU CDHR5 (11726645_a_at) / Fold change /veh CDHR5 (11726645_a_at) / RFU RCAN1 (11760418_a_at) / Fold change /veh RCAN1 (11760418_a_at) / RFU FAM167A (11723789_a_at) / Fold change /veh FAM167A (11723789_a_at) / RFU FAM26E (11764081_at) / Fold change /veh FAM26E (11764081_at) / RFU ISYNA1 (11749810_s_at) / Fold change /veh ISYNA1 (11749810_s_at) / RFU ACY1 (11761880_at) / Fold change /veh ACY1 (11761880_at) / RFU 11764098_at / Fold change /veh 11764098_at / RFU SAMD14 (11745864_x_at) / Fold change /veh SAMD14 (11745864_x_at) / RFU NPB (11741838_a_at) / Fold change /veh NPB (11741838_a_at) / RFU TMPRSS6 (11731388_a_at) / Fold change /veh TMPRSS6 (11731388_a_at) / RFU KRTAP10-2 (11738614_at) / Fold change /veh KRTAP10-2 (11738614_at) / RFU ARHGAP8 /// PRR5-ARHGAP8 (11727945_x_at) / Fold change /veh ARHGAP8 /// PRR5-ARHGAP8 (11727945_x_at) / RFU KRTAP5-7 /// NADSYN1 (11734609_at) / Fold change /veh KRTAP5-7 /// NADSYN1 (11734609_at) / RFU RASL12 (11751679_a_at) / Fold change /veh RASL12 (11751679_a_at) / RFU CDKN2B (11736163_a_at) / Fold change /veh CDKN2B (11736163_a_at) / RFU PRF1 (11729649_at) / Fold change /veh PRF1 (11729649_at) / RFU, ZNF638 /// ZNF638-IT1 / Fold change vs veh, ZNF638 /// ZNF638-IT1 / RFU, PANK3 / Fold change vs veh, PANK3 / RFU, SH3YL1 / Fold change vs veh, SH3YL1 / RFU, ZEB2 / Fold change vs veh, ZEB2 / RFU, NRIP1 / Fold change vs veh, NRIP1 / RFU, PTTG1IP / Fold change vs veh, PTTG1IP / RFU, CAPN2 / Fold change vs veh, CAPN2 / RFU, MED14 / Fold change vs veh, MED14 / RFU, SNORA58 / Fold change vs veh, SNORA58 / RFU, C1orf63 / Fold change vs veh, C1orf63 / RFU, LRRFIP1 / Fold change vs veh, LRRFIP1 / RFU, NDUFAF7 / Fold change vs veh, NDUFAF7 / RFU, SLC12A2 / Fold change vs veh, SLC12A2 / RFU, IBTK / Fold change vs veh, IBTK / RFU, ESF1 / Fold change vs veh, ESF1 / Fold change vs veh, TMEM50B / RFU, TAOK1 / Fold change vs veh, TAOK1 / RFU, ACBD3 / Fold change vs veh, ACBD3 / RFU, TMA16 / Fold change vs veh, TMA16 / RFU, RWDD3 / Fold change vs veh, RWDD3 / RFU, BCAT1 / Fold change vs veh, BCAT1 / RFU, EDEM3 / Fold change vs veh, EDEM3 / RFU, TMEM33 / Fold change vs veh, TMEM33 / RFU, WDR75 / Fold change vs veh, WDR75 / RFU, AHCTF1 / Fold change vs veh, AHCTF1 / RFU, TFRC / Fold change vs veh, TFRC / RFU, ZDHHC17 / Fold change vs veh, ZDHHC17 / RFU, NOM1 / Fold change vs veh, NOM1 / RFU, ARL8B / Fold change vs veh, ARL8B / RFU, ZBTB11 / Fold change vs veh, ZBTB11 / RFU, TAMM41 / Fold change vs veh, TAMM41 / RFU, KIAA1704 /// LOC100996395 / Fold change vs veh, KIAA1704 /// LOC100996395 / RFU, ING1 / Fold change vs veh, ING1 / RFU, TRMT61B / Fold change vs veh, TRMT61B / RFU, FUBP3 / Fold change vs veh, FUBP3 / RFU, TP53 / Fold change vs veh, TP53 / RFU, TNKS2 / Fold change vs veh, TNKS2 / RFU, ZFP14 / Fold change vs veh, ZFP14 / RFU, ACTR2 / Fold change vs veh, ACTR2 / RFU, PPP3R1 / Fold change vs veh, PPP3R1 / RFU, PIK3R1 / Fold change vs veh, PIK3R1 / RFU, HNRNPA1 / Fold change vs veh, HNRNPA1 / RFU, RNF170 / Fold change vs veh, RNF170 / RFU, ZNF28 / Fold change vs veh, ZNF28 / RFU, RNGTT / Fold change vs veh, RNGTT / RFU, OGT / Fold change vs veh, OGT / RFU, BRD1 / Fold change vs veh, BRD1 / RFU, MARS / Fold change vs veh, MARS / RFU, ZNF655 / Fold change vs veh, ZNF655 / RFU, FAHD1 / Fold change vs veh, FAHD1 / RFU, BDP1 / Fold change vs veh, BDP1 / RFU, LRRCC1 / Fold change vs veh, LRRCC1 / RFU, ARID1A / Fold change vs veh, ARID1A / RFU, ZNF146 / Fold change vs veh, ZNF146 / RFU, ZNF330 / Fold change vs veh, ZNF330 / RFU, GPN3 / Fold change vs veh, GPN3 / RFU, C9orf123 / Fold change vs veh, C9orf123 / RFU, N4BP2L2 / Fold change vs veh, N4BP2L2 / RFU, ARFIP1 / Fold change vs veh, ARFIP1 / RFU, FAM179B / Fold change vs veh, FAM179B / RFU, BCL10 / Fold change vs veh, BCL10 / RFU, UHRF1BP1L / Fold change vs veh, UHRF1BP1L / RFU, BET1 / Fold change vs veh, BET1 / RFU, CNOT2 / Fold change vs veh, CNOT2 / RFU, ZNF268 / Fold change vs veh, ZNF268 / Fold change vs veh, ZNF507 / RFU, DGCR2 / Fold change vs veh, DGCR2 / RFU, WDSUB1 / Fold change vs veh, WDSUB1 / Fold change vs veh, HSP90B1 /// MIR3652 / RFU, ADSS / Fold change vs veh, ADSS / RFU, GK / Fold change vs veh, GK / RFU, ZNF148 / Fold change vs veh, ZNF148 / RFU, TAF9 / Fold change vs veh, TAF9 / RFU, SLC1A5 / Fold change vs veh, SLC1A5 / RFU, SLMO2 / Fold change vs veh, SLMO2 / RFU, ABCC4 / Fold change vs veh, ABCC4 / RFU, LOC101060439 /// RAP1B / Fold change vs veh, LOC101060439 /// RAP1B / RFU, RFX7 / Fold change vs veh, RFX7 / RFU, GTPBP10 / Fold change vs veh, GTPBP10 / RFU, CNEP1R1 / Fold change vs veh, CNEP1R1 / RFU, BIVM-ERCC5 /// ERCC5 / Fold change vs veh, BIVM-ERCC5 /// ERCC5 / RFU, ILF3 / Fold change vs veh, ILF3 / RFU 11762660_at / Fold change /veh 11762660_at / RFU VCAN (11757783_s_at) / Fold change /veh VCAN (11757783_s_at) / RFU DDX43 (11728927_at) / Fold change /veh DDX43 (11728927_at) / RFU KRT8 (11758188_x_at) / Fold change /veh KRT8 (11758188_x_at) / RFU NKD1 (11759106_at) / Fold change /veh NKD1 (11759106_at) / RFU SRD5A1 (11742802_a_at) / Fold change /veh SRD5A1 (11742802_a_at) / RFU TPSAB1 /// TPSB2 (11721975_s_at) / Fold change /veh TPSAB1 /// TPSB2 (11721975_s_at) / RFU GSTM3 (11746129_a_at) / Fold change /veh GSTM3 (11746129_a_at) / RFU IL23R (11737362_x_at) / Fold change /veh IL23R (11737362_x_at) / RFU TMEM51 (11727254_a_at) / Fold change /veh TMEM51 (11727254_a_at) / RFU PIWIL2 (11732686_x_at) / Fold change /veh PIWIL2 (11732686_x_at) / RFU ORM1 (11744905_x_at) / Fold change /veh ORM1 (11744905_x_at) / RFU CCDC152 (11743942_at) / Fold change /veh CCDC152 (11743942_at) / RFU ECM1 (11717891_a_at) / Fold change /veh ECM1 (11717891_a_at) / RFU IL23R (11748794_a_at) / Fold change /veh IL23R (11748794_a_at) / RFU TNFAIP8L3 (11732012_x_at) / Fold change /veh TNFAIP8L3 (11732012_x_at) / RFU MBOAT4 (11741988_at) / Fold change /veh MBOAT4 (11741988_at) / RFU 11764193_at / Fold change /veh 11764193_at / RFU TMEM53 (11763286_at) / Fold change /veh TMEM53 (11763286_at) / RFU MAGEB2 (11727129_at) / Fold change /veh MAGEB2 (11727129_at) / RFU TMEM200A (11744735_a_at) / Fold change /veh TMEM200A (11744735_a_at) / RFU CCDC152 (11751479_a_at) / Fold change /veh CCDC152 (11751479_a_at) / RFU FAM211A (11726209_a_at) / Fold change /veh FAM211A (11726209_a_at) / RFU RGS16 (11746705_a_at) / Fold change /veh RGS16 (11746705_a_at) / RFU VCAN (11755009_s_at) / Fold change /veh VCAN (11755009_s_at) / RFU RHOB (11743442_s_at) / Fold change /veh RHOB (11743442_s_at) / RFU RGS16 (11720943_a_at) / Fold change /veh RGS16 (11720943_a_at) / RFU RGS16 (11720944_at) / Fold change /veh RGS16 (11720944_at) / RFU, VPS4B / Fold change vs veh, VPS4B / RFU, CREB1 / Fold change vs veh, CREB1 / RFU, DNAJC13 / Fold change vs veh, DNAJC13 / RFU, GNAQ / Fold change vs veh, GNAQ / RFU, CDK5R1 / Fold change vs veh, CDK5R1 / RFU, ZRANB3 / Fold change vs veh, ZRANB3 / RFU, CUL4A / Fold change vs veh, CUL4A / RFU, CCNY / Fold change vs veh, CCNY / RFU, UFL1 / Fold change vs veh, UFL1 / RFU, COG3 / Fold change vs veh, COG3 / RFU, DIAPH2 / Fold change vs veh, DIAPH2 / RFU, SKA2 / Fold change vs veh, SKA2 / RFU, AFF3 / Fold change vs veh, AFF3 / RFU, LMF1 / Fold change vs veh, LMF1 / RFU, IPO11 / Fold change vs veh, IPO11 / RFU, DFFB / Fold change vs veh, DFFB / RFU, FOXP1 / Fold change vs veh, FOXP1 / RFU, CARD8 / Fold change vs veh, CARD8 / RFU, STRN3 / Fold change vs veh, STRN3 / RFU, ADK / Fold change vs veh, ADK / RFU, RASSF2 / Fold change vs veh, RASSF2 / RFU, WIPF1 / Fold change vs veh, WIPF1 / RFU, LARP1B / Fold change vs veh, LARP1B / RFU, RASA1 / Fold change vs veh, RASA1 / RFU, RB1 / Fold change vs veh, RB1 / RFU, PPFIA1 / Fold change vs veh, PPFIA1 / RFU, MAT2A / Fold change vs veh, MAT2A / RFU, CCT5 / Fold change vs veh, CCT5 / RFU, WDR92 / Fold change vs veh, WDR92 / RFU, CUX1 / Fold change vs veh, CUX1 / RFU, TTC7A / Fold change vs veh, TTC7A / RFU, TMEM135 / Fold change vs veh, TMEM135 / RFU, DEPTOR / Fold change vs veh, DEPTOR / RFU, CPM / Fold change vs veh, CPM / RFU, DNAJB6 / Fold change vs veh, DNAJB6 / RFU, CACNA2D3 / Fold change vs veh, CACNA2D3 / RFU, DTX4 / Fold change vs veh, DTX4 / RFU, TFCP2 / Fold change vs veh, TFCP2 / RFU, GMCL1 /// GMCL1P1 / Fold change vs veh, GMCL1 /// GMCL1P1 / RFU, AEBP2 / Fold change vs veh, AEBP2 / RFU, SNHG1 /// SNORD22 /// SNORD25 /// SNORD26 /// SNORD27 /// SNORD28 /// SNORD29 /// SNORD31 / Fold change vs veh, SNHG1 /// SNORD22 /// SNORD25 /// SNORD26 /// SNORD27 /// SNORD28 /// SNORD29 /// SNORD31 / Fold change (Aza/veh), C12orf56 (ProbeSet 11735607_a_at) / Fold change (ACY-1035/veh), C12orf56 (ProbeSet 11735607_a_at) / Fold change (Aza/veh), FGFR1OP (ProbeSet 11751329_s_at) / Fold change (ACY-1035/veh), FGFR1OP (ProbeSet 11751329_s_at) / Fold change (Aza/veh), VPS36 (ProbeSet 11739960_a_at) / Fold change (ACY-1035/veh), VPS36 (ProbeSet 11739960_a_at) / RFU SYPL1 (11715823_x_at) / Fold change /veh SYPL1 (11715823_x_at) / RFU IGFBP7 (11715501_s_at) / Fold change /veh IGFBP7 (11715501_s_at) / RFU REEP3 (11722064_at) / Fold change /veh REEP3 (11722064_at) / RFU IGLL1 (11728026_x_at) / Fold change /veh IGLL1 (11728026_x_at): dose or concentration left out as unconfirmed", "details": "ProbeSet 11717876_a_at; LIST D", "data": [{"smiles": "Nc1ccc(-c2cccs2)cc1NC(=O)c1ccc2c(c1)cc(C1CC1)n2CCN1CCOCC1", "note": "[ACY-1035]", "values": [{"measurement": "Fold change vs veh, PPFIA1", "value": 0.87}]}]}
